Experimental data published in patent publication US10681909B2, “Herbicidal triazoles” (FMC Corporation, priority 2014, dated 2020).

Key:
[1] = test system: ragweed; experiment: Test C postemergence; type: in vivo, Ambrosia elatior
Outline: (§1)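 Test chemicals in a non-phytotoxic solvent mixture with surfactant were applied to pots of plants at 2 to 18 cm (1- to 4-leaf stage) for postemergence treatment, grown in a peat-based medium with vermiculite, starter nutrients and dolomitic limestone. Preemergence treatment was to seeds freshly planted in loam soil mixed with sand.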

[2] = test system: rice; experiment: Test B flooded paddy test; type: in vivo, Oryza sativa; settings: 250 g ai/ha, applied to paddy water at 2-leaf stage, visual rating after 13 to 15 d, scale 0 (no effect) to 100 (complete control)
Outline: (§2)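 Pots were flooded to 3 cm above the soil at treatment, and compounds were applied directly into the paddy water. That depth was held throughout. After 13 to 15 d in a greenhouse, plants were rated visually against untreated controls.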

[3] = test system: ryegrass, Italian; experiment: Test C postemergence; type: in vivo, Lolium multiflorum
Outline: as §1

[4] = test system: corn; experiment: Test A postemergence; type: in vivo, Zea mays; settings: 0 to 100 scale (0 no effect, 100 complete control), approx. 10 d
Outline: (§3)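 Herbicidal response was scored on plants treated pre- or postemergence with surfactant-containing, non-phytotoxic solvent formulations. Preemergence meant a directed spray onto soil (loam–sand) holding sown seed; postemergence plants were at one to two leaves.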

[5] = test system: oilseed rape; experiment: Test C postemergence; type: in vivo, Brassica napus
Outline: as §1

[6] = test system: velvetleaf; experiment: Test C postemergence; type: in vivo, Abutilon theophrasti
Outline: as §1

[7] = test system: oat, wild; experiment: Test C postemergence; type: in vivo, Avena fatua
Outline: as §1

[8] = test system: nutsedge, yellow; experiment: Test C postemergence; type: in vivo, Cyperus esculentus
Outline: as §1

[9] = test system: ducksalad; experiment: Test B flooded paddy test; type: in vivo, Heteranthera limosa; settings: 250 g ai/ha, applied to paddy water at 2-leaf stage, visual rating after 13 to 15 d, scale 0 (no effect) to 100 (complete control)
Outline: as §2

[10] = test system: foxtail, giant; experiment: Test A postemergence; type: in vivo, Setaria faberii; settings: 0 to 100 scale (0 no effect, 100 complete control), approx. 10 d
Outline: as §3

[11] = test system: foxtail, giant; experiment: Test C postemergence; type: in vivo, Setaria faberii
Outline: as §1

[12] = test system: barnyardgrass; experiment: Test A postemergence; type: in vivo, Echinochloa crus-galli; settings: 0 to 100 scale (0 no effect, 100 complete control), approx. 10 d
Outline: as §3

[13] = test system: barnyardgrass; experiment: Test C postemergence; type: in vivo, Echinochloa crus-galli
Outline: as §1

[14] = test system: chickweed; experiment: Test C postemergence; type: in vivo, Stellaria media
Outline: as §1

[15] = test system: pigweed; experiment: Test C postemergence; type: in vivo, Amaranthus retroflexus
Outline: as §1

[16] = test system: blackgrass; experiment: Test C postemergence; type: in vivo, Alopecurus myosuroides
Outline: as §1

[17] = test system: wheat (winter wheat); experiment: Test C postemergence; type: in vivo, Triticum aestivum
Outline: as §1

[18] = test system: johnsongrass; experiment: Test C postemergence; type: in vivo, Sorghum halepense
Outline: as §1

[19] = test system: pigweed; experiment: Test A preemergence; type: in vivo, Amaranthus retroflexus; settings: 0 to 100 scale (0 no effect, 100 complete control)
Outline: as §3

[20] = test system: kochia; experiment: Test C postemergence; type: in vivo, Kochia scoparia
Outline: as §1

FC(F)(F)COc1nc(-c2ccc(Cl)cc2)nn1Cc1ccnc(C(F)(F)F)c1 [Compound 31]
Plant response rating (scale of 0 to 100 where 0 is no effect and 100 is complete control) ([1]; 31 g ai/ha): 70
Plant response rating (scale of 0 to 100 where 0 is no effect and 100 is complete control) ([1]; 62 g ai/ha): 75
Plant response rating (scale of 0 to 100 where 0 is no effect and 100 is complete control) ([1]; 125 g ai/ha): 85
Plant response rating (scale of 0 to 100 where 0 is no effect and 100 is complete control) ([1]; 250 g ai/ha): 100
Plant response rating, Rice, Flood [2]: 35
Plant response rating (scale of 0 to 100 where 0 is no effect and 100 is complete control) ([3]; 31 g ai/ha): 20
Plant response rating (scale of 0 to 100 where 0 is no effect and 100 is complete control) ([3]; 62 g ai/ha): 30
Plant response rating (scale of 0 to 100 where 0 is no effect and 100 is complete control) ([3]; 125 g ai/ha): 40
Plant response rating (scale of 0 to 100 where 0 is no effect and 100 is complete control) ([3]; 250 g ai/ha): 65
Plant response rating, Corn ([4]; 125 g ai/ha): 20
Plant response rating, Corn ([4]; 500 g ai/ha): 30
Plant response rating (scale of 0 to 100 where 0 is no effect and 100 is complete control) ([5]; Oilsee Rape, 250 g ai/ha): 90
Plant response rating (scale of 0 to 100 where 0 is no effect and 100 is complete control) ([5]; Oilseed Rape, 31 g ai/ha): 85
Plant response rating (scale of 0 to 100 where 0 is no effect and 100 is complete control) ([5]; Oilseed Rape, 62 g ai/ha): 90
Plant response rating (scale of 0 to 100 where 0 is no effect and 100 is complete control) ([5]; Oilseed Rape, 125 g ai/ha): 85
Plant response rating (scale of 0 to 100 where 0 is no effect and 100 is complete control) ([6]; 31 g ai/ha): 45
Plant response rating (scale of 0 to 100 where 0 is no effect and 100 is complete control) ([6]; 62 g ai/ha): 65
Plant response rating (scale of 0 to 100 where 0 is no effect and 100 is complete control) ([6]; 125 g ai/ha): 65
Plant response rating (scale of 0 to 100 where 0 is no effect and 100 is complete control) ([6]; 250 g ai/ha): 75
Plant response rating (scale of 0 to 100 where 0 is no effect and 100 is complete control) ([7]; 31 g ai/ha): 30
Plant response rating (scale of 0 to 100 where 0 is no effect and 100 is complete control) ([7]; 62 g ai/ha): 35
Plant response rating (scale of 0 to 100 where 0 is no effect and 100 is complete control) ([7]; 125 g ai/ha): 80
Plant response rating (scale of 0 to 100 where 0 is no effect and 100 is complete control) ([7]; 250 g ai/ha): 80
Plant response rating (scale of 0 to 100 where 0 is no effect and 100 is complete control) ([8]; 31 g ai/ha): 20
Plant response rating (scale of 0 to 100 where 0 is no effect and 100 is complete control) ([8]; 62 g ai/ha): 30
Plant response rating (scale of 0 to 100 where 0 is no effect and 100 is complete control) ([8]; 125 g ai/ha): 30
Plant response rating (scale of 0 to 100 where 0 is no effect and 100 is complete control) ([8]; 250 g ai/ha): 35
Plant response rating, Ducksalad, Flood [9]: 70
Plant response rating, Foxtail, Giant ([10]; 125 g ai/ha): 80
Plant response rating, Foxtail, Giant ([10]; 500 g ai/ha): 90
Plant response rating (scale of 0 to 100 where 0 is no effect and 100 is complete control) ([11]; 31 g ai/ha): 15
Plant response rating (scale of 0 to 100 where 0 is no effect and 100 is complete control) ([11]; 62 g ai/ha): 35
Plant response rating (scale of 0 to 100 where 0 is no effect and 100 is complete control) ([11]; 125 g ai/ha): 40
Plant response rating (scale of 0 to 100 where 0 is no effect and 100 is complete control) ([11]; 250 g ai/ha): 40
Plant response rating, Barnyardgrass ([12]; 125 g ai/ha): 50
Plant response rating, Barnyardgrass ([12]; 500 g ai/ha): 90
Plant response rating (scale of 0 to 100 where 0 is no effect and 100 is complete control) ([13]; 31 g ai/ha): 35
Plant response rating (scale of 0 to 100 where 0 is no effect and 100 is complete control) ([13]; 62 g ai/ha): 35
Plant response rating (scale of 0 to 100 where 0 is no effect and 100 is complete control) ([13]; 125 g ai/ha): 45
Plant response rating (scale of 0 to 100 where 0 is no effect and 100 is complete control) ([13]; 250 g ai/ha): 75
Plant response rating (scale of 0 to 100 where 0 is no effect and 100 is complete control) ([14]; 31 g ai/ha): 90
Plant response rating (scale of 0 to 100 where 0 is no effect and 100 is complete control) ([14]; 62 g ai/ha): 95
Plant response rating (scale of 0 to 100 where 0 is no effect and 100 is complete control) ([14]; 125 g ai/ha): 95
Plant response rating (scale of 0 to 100 where 0 is no effect and 100 is complete control) ([14]; 250 g ai/ha): 95
Plant response rating (scale of 0 to 100 where 0 is no effect and 100 is complete control) ([15]; 31 g ai/ha): 95
Plant response rating (scale of 0 to 100 where 0 is no effect and 100 is complete control) ([15]; 62 g ai/ha): 98
Plant response rating (scale of 0 to 100 where 0 is no effect and 100 is complete control) ([15]; 125 g ai/ha): 100
Plant response rating (scale of 0 to 100 where 0 is no effect and 100 is complete control) ([15]; 250 g ai/ha): 98
Plant response rating (scale of 0 to 100 where 0 is no effect and 100 is complete control) ([16]; 31 g ai/ha): 35
Plant response rating (scale of 0 to 100 where 0 is no effect and 100 is complete control) ([16]; 62 g ai/ha): 50
Plant response rating (scale of 0 to 100 where 0 is no effect and 100 is complete control) ([16]; 125 g ai/ha): 60
Plant response rating (scale of 0 to 100 where 0 is no effect and 100 is complete control) ([16]; 250 g ai/ha): 80
Plant response rating (scale of 0 to 100 where 0 is no effect and 100 is complete control) ([17]; 31 g ai/ha): 5
Plant response rating (scale of 0 to 100 where 0 is no effect and 100 is complete control) ([17]; 62 g ai/ha): 5
Plant response rating (scale of 0 to 100 where 0 is no effect and 100 is complete control) ([17]; 125 g ai/ha): 10
Plant response rating (scale of 0 to 100 where 0 is no effect and 100 is complete control) ([17]; 250 g ai/ha): 20
Plant response rating (scale of 0 to 100 where 0 is no effect and 100 is complete control) ([18]; 31 g ai/ha): 35
Plant response rating (scale of 0 to 100 where 0 is no effect and 100 is complete control) ([18]; 62 g ai/ha): 25
Plant response rating (scale of 0 to 100 where 0 is no effect and 100 is complete control) ([18]; 125 g ai/ha): 40
Plant response rating (scale of 0 to 100 where 0 is no effect and 100 is complete control) ([18]; 250 g ai/ha): 70
Plant response rating, Pigweed ([19]; 125 g ai/ha): 100
Plant response rating, Pigweed ([19]; 500 g ai/ha, approx. 10 d): 100
Plant response rating (scale of 0 to 100 where 0 is no effect and 100 is complete control) ([20]; 31 g ai/ha): 90
Plant response rating (scale of 0 to 100 where 0 is no effect and 100 is complete control) ([20]; 62 g ai/ha): 90
Plant response rating (scale of 0 to 100 where 0 is no effect and 100 is complete control) ([20]; 125 g ai/ha): 90
Plant response rating (scale of 0 to 100 where 0 is no effect and 100 is complete control) ([20]; 250 g ai/ha): 90
